The results in this text go back to patent US20240197828A1, “Chimeric molecule to treat sepsis and other inflammatory conditions” (THE FEINSTEIN INSTITUTES FOR MEDICAL RESEARCH, priority 2022, published 2024).

Experiment [1] deals with WT mice. As to the kind of experiment: Sterile eCIRP-induced inflammation by rmCIRP injection in mice. Conditions: rmCIRP 5 mg/kg co-incubated 30 min with test substance, r.o. injection, 4 hours, vs eCIRP alone. The class given is in vivo, mouse. On the procedure:
FIG. 5A-5B. eCIRP-induced inflammation is attenuated by MOP3. WT mice were treated according to respective groups: PBS (volume equivalent), rmCIRP (5 mg/kg), or MOP3 (10 μg/kg) co-incubated with rmCIRP (5 mg/kg) for 30 mins prior to r.o. injection. After 4 hours, serum was measured for IL-6 (A) and TNFα (B) levels by ELISA. All experiments were performed 3 times, and all data were used for analysis (N=7-10). Data are expressed as mean±SEM and compared by one-way ANOVA and SNK test. *p<0.05 vs. PBS, #p<0.05 vs. eCIRP.
Adult (8-12 weeks) male, C57BL/6 wild-type (WT) mice (20-30 g) were purchased from Charles River Laboratories. […] For the design of in vivo models, sample size calculation was driven by variability, effect size, significance level and power as determined through performance of early feasibility and optimization pilot studies. […]
The mouse macrophage cell culture supernatants were analyzed for cytokine levels using ELISA kits (BD Biosciences, CA). […] TNF-α and IL-6 levels were measured in cell supernatants by ELISA in accordance with respective manufacturers' instructions (BD Biosciences, CA). Blood was collected, centrifuged at 4,000 RPM for 10 minutes, and sera was separated and analyzed for cytokine levels using ELISA kits (BD Biosciences, CA). TNF-α and IL-6 levels in the serum were measured by ELISA in accordance with respective manufacturers' instructions. […]

For experiment [2], the system named is WT mice. As to the kind of experiment: CLP-induced polymicrobial sepsis, 20 hours. Conditions: vs vehicle. The class given is in vivo, mouse. On the procedure:
FIG. 6A-6M: MOP3 ameliorates inflammation, lung injury, and improves survival in sepsis. WT mice subjected to CLP-induced sepsis with MOP3 treatment (10 μg/kg) or vehicle (volume-equivalent). After 20 hours, blood and lung tissue collected for respective analyses. (A-C) Serum was analyzed for systemic eCIRP, IL-6, and TNFα levels by ELISA. (D-F) Serum was analyzed for ALT, AST, and LDH by calorimetric assays. (G-I) Lung tissue was frozen and mRNA expression of IL-6, TNFα, and IL-1β was measured by PCR and MPO by calorimetric assay. (J) Lung tissue was frozen and analyzed for MPO levels by calorimetric assay. (K) Lungs were sectioned, imaged for histologic injury by H&E staining, and performed lung injury scoring. (L) Sectioned lungs were stained for TUNEL positive cells and cell counts were quantified. All experiments were performed 3 times, and all data were used for analysis (N=6-18). Data are expressed as mean±SEM and compared by one-way ANOVA and SNK test. *p<0.05 vs. sham, #p<0.05 vs. CLP vehicle. (M) WT mice subjected to CLP-induced sepsis with MOP3 treatment (10 μg/kg) or vehicle (volume equivalent) and monitored for 10 days for humane endpoints, and differences in survival were determined (N=17 per group). *p<0.05 vs. CLP vehicle.
Adult (8-12 weeks) male, C57BL/6 wild-type (WT) mice (20-30 g) were purchased from Charles River Laboratories. MFG-E8 knockout mice (MFG-E8^−/−) were originally obtained from Dr. Shigekazu Nagata, Osaka University of Japan, and bred following our Institutional Animal Care and Use Committee (IACUC) policies. Age-matched, healthy mice were used in all experiments. Animals were randomly assigned to sham, vehicle, or treatment groups. Concerted effort was made to ensure that a limited number of animals were used in each experiment. All experiments were previously approved by IACUC of the Feinstein Institutes for Medical Research (Manhasset, NY) and were performed in accordance with the guidance for the use of experimental animals by the National Institutes of Health (Bethesda, MD). For the design of in vivo models, sample size calculation was driven by variability, effect size, significance level and power as determined through performance of early feasibility and optimization pilot studies.
Sepsis was induced in mice by cecal ligation and puncture (CLP) as previously described (4). Briefly, mice were anesthetized with inhaled isoflurane to achieve adequate anesthesia. After placement in the supine position, the abdomen was shaved and disinfected. A 2-cm midline laparotomy was created. The cecum was located and eviscerated from the abdomen and then ligated with a 4-0 silk suture approximately 1 cm proximal from the terminal cecal extremity. For short-term experiments using this polymicrobial sepsis model, the cecum was punctured twice (through and through) with a 22G needle. Careful extraction of a consistent, small amount of cecal content was extruded, and the cecum along with cecal content was returned to the peritoneal cavity. […] All comparative surgeries were performed on the same day to reduce severity-variability. All short-term experiments were repeated at least three-times to ensure reproducibility of relative markers of inflammation and injury.
For respective experiments, either WT or MFG-E8 knockout mice were subjected to CLP. For treatment experiments, mice were randomly assigned to either vehicle or treatment groups. MOP3 ([…]) was given via retroorbital (r.o.) injection at time of surgery, immediately following abdominal closure. Vehicle groups received an equivalent volume of normal saline via r.o. injection. For resuscitation, mice additionally received subcutaneous injection of 500 μL of normal saline immediately after abdominal closure.
The mouse macrophage cell culture supernatants were analyzed for cytokine levels using ELISA kits (BD Biosciences, CA). […]

Residues, ends and D or L forms follow the SMILES beside them.

Take `CC(C)C[C@H](NC(=O)[C@H](CC(N)=O)NC(=O)[C@H](Cc1c[nH]c2ccccc12)NC(=O)[C@@H](NC(=O)[C@H](CCCCN)NC(=O)[C@H](Cc1ccc(O)cc1)NC(=O)[C@H](CO)NC(=O)[C@H](CO)NC(=O)[C@H](CO)NC(=O)[C@H](CC(=O)O)NC(=O)CNC(=O)[C@@H](N)CCCNC(=N)N)[C@@H](C)O)C(=O)N[C@@H](CCCNC(=N)N)C(=O)N[C@@H](C)C(=O)N[C@@H](Cc1ccccc1)C(=O)NCC(=O)N[C@@H](Cc1c[nH]c2ccccc12)C(=O)N[C@@H](Cc1ccc(O)cc1)C(=O)O` [MOP3, RGDSSSYKTWNLRAFGWY] (H-RGDSSSYKTWNLRAFGWY-OH; N-terminus and C-terminus assumed): in experiment [1], the “serum IL-6 levels” value was “reduced systemic levels” and the “serum TNFα levels” value is recorded as “reduced systemic levels”. Also, in experiment [2] (PCR), the “lung tissue mRNA levels of IL-1β” value is on record as “reduced”, the “lung tissue mRNA levels of IL-6” value is “reduced” and the “lung tissue mRNA levels of TNFα” value is listed as “reduced”. Besides, the “serum levels of eCIRP” value in experiment [2] (one-time intravenous MOP3 at surgical closure) is “significantly reduced”. Besides, in experiment [2] (serum), the “systemic IL-6” value is “attenuated systemic inflammation” and the “systemic TNFα” value is “attenuated systemic inflammation”. Also, in experiment [2], the “apoptotic cells in lungs (TUNEL)” value was “significantly less apoptotic cells”; the “lung MPO levels” value is “decreased”; the “lung histologic architecture (H&E, lung injury)” value is reported as “significantly preserved histologic architecture”; the “serum ALT levels” value was “reduced”. Moreover, in experiment [2], the “serum AST levels” value was “reduced” and the “serum LDH levels” value is given as “reduced”.
